Measurements: patent US8604218B2, “Cytoskeletal active rho kinase inhibitor compounds, composition and use” (Inspire Pharmaceuticals, Inc., priority 2006, dated 2013)

Tested on: NIH/3T3 cells
Assay: NIH/3T3 Cell Morphology Assay (actin disruption)
Assay type: cell-based
Conditions: 1 μM test compound, 60 minutes at 37° C.; score of actin cytoskeleton disruption from 0 (no effect) to 4 (complete disruption), average of at least 2 determinations
Description: NIH/3T3 cells were grown in DMEM-H containing glutamine and 10% Colorado Calf Serum. Cells were passaged regularly prior to reaching confluence. Eighteen to 24 hours prior to experimentation, the cells were plated onto Poly-L-Lysine-coated glass bottom 24-well plates. On the day of experimentation, the cell culture medium was removed and was replaced with the same medium containing from 10 nM to 25 μM of the test compound, and the cells were incubated for 60 minutes at 37° C. The culture medium was then removed and the cells were washed with warmed PBS and fixed for 10 minutes with warmed 4% paraformaldehyde. The cells were permeabilized with 0.5% Triton-X, stained with TRITC-conjugated phalloidin and imaged using a Nikon Eclipse E600 epifluorescent microscope to determine the degree of actin disruption. Results were expressed as a numerical score indicating the observed degree of disruption of the actin cytoskeleton at the test concentration, ranging from 0 (no effect) to 4 (complete disruption), and were the average of at least 2 determinations.
All compounds tested show measurable activity in the cell morphology assay, with most of the compounds providing substantial effects on the actin cytoskeleton at the testing concentration (score of 2 at 1 μM). […] These morphology changes are thought to provide the basis for the beneficial pharmacological effects sought in the setting of the disease processes described in this application, specifically the lowering of elevated IOP in hypertensive eyes via increased outflow through the trabecular meshwork.

Row | Compound | Cell score at 1 μM
1 | CC(=O)Nc1ccc(CN2CCC(Nc3ccc4[nH]ncc4c3)C2)cc1 (centres unmarked) [Compound 1.006, N-(4-((3-(1H-indazol-5-ylamino)pyrrolidin-1-yl)methyl)phenyl)acetamide] | 2
2 | CS(=O)(=O)c1ccc(CN2CCCC(Nc3cccc4cnccc34)C2)cc1 (centres unmarked) [Compound 2.002, N-(1-(4-(methylsulfonyl)benzyl)piperidin-3-yl)isoquinolin-5-amine] | 1.8
3 | N#Cc1cccc(CN2CCC(Nc3ccc4[nH]ncc4c3)C2)c1 (centres unmarked) [Compound 1.005, 3-((3-(1H-indazol-5-ylamino)pyrrolidin-1-yl)methyl)benzonitrile] | 1.3
4 | N#Cc1cccc(CN2CCCC(Nc3ccc4[nH]ncc4c3)C2)c1 (centres unmarked) [Compound 1.002, 3-((3-(1H-indazol-5-ylamino)piperidin-1-yl)methyl)benzonitrile] | 1.4
5 | CSc1ccc(CN2CC[C@@H](Nc3cccc4cnccc34)C2)cc1 [Compound 2.026, (R)-N-(1-(4-(methylthio)benzyl)pyrrolidin-3-yl)isoquinolin-5-amine] | 2
6 | CC(=O)Nc1ccc(CN2CCC(Nc3cccc4cnccc34)C2)cc1 (centres unmarked) [Compound 2.008, N-(4-((3-(isoquinolin-5-ylamino)pyrrolidin-1-yl)methyl)phenyl)acetamide] | 1

Target: ROCK2 (Homo sapiens (Human), UniProt O75116)
Sequence (O75116 11-552): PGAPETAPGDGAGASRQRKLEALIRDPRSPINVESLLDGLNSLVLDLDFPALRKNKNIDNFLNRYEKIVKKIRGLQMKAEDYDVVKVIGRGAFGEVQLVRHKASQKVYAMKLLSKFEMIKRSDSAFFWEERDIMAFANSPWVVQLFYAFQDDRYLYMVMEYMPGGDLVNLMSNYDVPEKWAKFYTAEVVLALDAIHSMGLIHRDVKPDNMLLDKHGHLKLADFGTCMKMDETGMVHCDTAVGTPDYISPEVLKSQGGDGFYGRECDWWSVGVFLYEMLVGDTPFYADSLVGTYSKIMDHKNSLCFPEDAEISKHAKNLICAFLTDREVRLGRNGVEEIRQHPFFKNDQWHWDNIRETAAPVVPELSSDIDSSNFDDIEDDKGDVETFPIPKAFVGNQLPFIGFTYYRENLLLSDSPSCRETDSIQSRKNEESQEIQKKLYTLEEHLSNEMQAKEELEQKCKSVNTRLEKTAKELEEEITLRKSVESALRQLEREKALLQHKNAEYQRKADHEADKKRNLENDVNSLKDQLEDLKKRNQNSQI
Assay: Rho Kinase Inhibition Assay (IMAP fluorescence polarization)
Assay type: biochemical
Conditions: isolated enzyme, 10 μM ATP, 60 minutes at room temperature

Row | Compound | IC50 [nM]
7 | CC(=O)Nc1ccc(CN2CCC(Nc3ccc4[nH]ncc4c3)C2)cc1 (centres unmarked) [Compound 1.006, N-(4-((3-(1H-indazol-5-ylamino)pyrrolidin-1-yl)methyl)phenyl)acetamide] | 2750
8 | CS(=O)(=O)c1ccc(CN2CCCC(Nc3cccc4cnccc34)C2)cc1 (centres unmarked) [Compound 2.002, N-(1-(4-(methylsulfonyl)benzyl)piperidin-3-yl)isoquinolin-5-amine] | 2580
9 | N#Cc1cccc(CN2CCC(Nc3ccc4[nH]ncc4c3)C2)c1 (centres unmarked) [Compound 1.005, 3-((3-(1H-indazol-5-ylamino)pyrrolidin-1-yl)methyl)benzonitrile] | 2290
10 | N#Cc1cccc(CN2CCCC(Nc3ccc4[nH]ncc4c3)C2)c1 (centres unmarked) [Compound 1.002, 3-((3-(1H-indazol-5-ylamino)piperidin-1-yl)methyl)benzonitrile] | 1230
11 | CCS(=O)(=O)Nc1cccc(CN2CCC[C@H](Nc3ccc4[nH]ncc4c3)C2)c1 [Compound 1.124, (S)-N-(3-((3-(1H-indazol-5-ylamino)piperidin-1-yl)methyl)phenyl)ethanesulfonamide] | 59.2
12 | OCCOc1cccc(CN2CCC[C@@H](Nc3ccc4[nH]ncc4c3)C2)c1 [Compound 1.092, (R)-2-(3-((3-(1H-indazol-5-ylamino)piperidin-1-yl)methyl)phenoxy)ethanol] | 406
13 | CCc1ccc(CN2CCCC(Nc3ccc4[nH]ncc4c3)C2)cc1 (centres unmarked) [Compound 1.033, N-(1-(4-ethylbenzyl)piperidin-3-yl)-1H-indazol-5-amine] | 86.9
14 | Cc1ccc(CN2CCCC(Nc3ccc4[nH]ncc4c3)C2)c(C)c1 (centres unmarked) [Compound 1.024, N-(1-(2,4-dimethylbenzyl)piperidin-3-yl)-1H-indazol-5-amine] | 107
15 | OCCOc1cccc(CN2CCC[C@H](Nc3cccc4cnccc34)C2)c1 [Compound 2.036, (S)-2-(3-((3-(isoquinolin-5-ylamino)piperidin-1-yl)methyl)phenoxy)ethanol] | 160
16 | OC[C@H](O)COc1cccc(CN2CCC[C@@H](Nc3ccc4[nH]ncc4c3)C2)c1 [Compound 1.113, (S)-3-(3-(((R)-3-(1H-indazol-5-ylamino)piperidin-1-yl)methyl)phenoxy)propane-1,2-diol] | 859
17 | FC(F)(F)c1cccc(CN2CCCC(Nc3cccc4cnccc34)C2)c1 (centres unmarked) [Compound 2.015, N-(1-(3-(trifluoromethyl)benzyl)piperidin-3-yl)isoquinolin-5-amine] | 4190
18 | c1cc2cc(CN3CCCC(Nc4ccc5[nH]ncc5c4)C3)ccc2o1 (centres unmarked) [Compound 1.052, N-(1-(benzofuran-5-ylmethyl)piperidin-3-yl)-1H-indazol-5-amine] | 15.3
19 | OCC#Cc1ccc(CN2CCCC(Nc3ccc4[nH]ncc4c3)C2)cc1 (centres unmarked) [Compound 1.042, 3-(4-((3-(1H-indazol-5-ylamino)piperidin-1-yl)methyl)phenyl)prop-2-yn-1-ol] | 4400
20 | CSc1ccc(CN2CC[C@@H](Nc3cccc4cnccc34)C2)cc1 [Compound 2.026, (R)-N-(1-(4-(methylthio)benzyl)pyrrolidin-3-yl)isoquinolin-5-amine] | 6330
21 | C#Cc1ccc(CN2CCC[C@@H](Nc3ccc4[nH]ncc4c3)C2)cc1 [Compound 1.076, (R)-N-(1-(4-ethynylbenzyl)piperidin-3-yl)-1H-indazol-5-amine] | 111
22 | C(#CC1CC1)c1ccc(CN2CCCC(Nc3ccc4[nH]ncc4c3)C2)cc1 (centres unmarked) [Compound 1.044, N-(1-(4-(cyclopropylethynyl)benzyl)piperidin-3-yl)-1H-indazol-5-amine] | 6510

Row | Compound | IC50 [nM]
23 | OCCOc1cccc(CN2CCC[C@H](Nc3ccc4[nH]ncc4c3)C2)c1 [Compound 1.090, (S)-2-(3-((3-(1H-indazol-5-ylamino)piperidin-1-yl)methyl)phenoxy)ethanol] | 354
24 | CS(=O)(=O)Nc1cccc(CN2CC[C@H](Nc3ccc4[nH]ncc4c3)C2)c1 [Compound 1.095, (S)-N-(3-((3-(1H-indazol-5-ylamino)pyrrolidin-1-yl)methyl)phenyl)methanesulfonamide] | 647
25 | CCOC(=O)COc1cccc(CN2CCCC(Nc3ccc4[nH]ncc4c3)C2)c1 (centres unmarked) [Compound 1.060, ethyl 2-(3-((3-(1H-indazol-5-ylamino)piperidin-1-yl)methyl)phenoxy)acetate] | 87.2
26 | CC(=O)NCCOc1cccc(CN2CCCC(Nc3ccc4[nH]ncc4c3)C2)c1 (centres unmarked) [Compound 1.111, N-(2-(3-((3-(1H-indazol-5-ylamino)piperidin-1-yl)methyl)phenoxy)ethyl)acetamide] | 591
27 | COc1ccccc1CN1CCCC(Nc2ccc3[nH]ncc3c2)C1 (centres unmarked) [Compound 1.067, N-(1-(2-methoxybenzyl)piperidin-3-yl)-1H-indazol-5-amine] | 1850
28 | CS(=O)(=O)Nc1cccc(CN2CC[C@@H](Nc3ccc4[nH]ncc4c3)C2)c1 [Compound 1.097, (R)-N-(3-((3-(1H-indazol-5-ylamino)pyrrolidin-1-yl)methyl)phenyl)methanesulfonamide] | 276
29 | NCc1cccc(CN2CCCC(Nc3ccc4[nH]ncc4c3)C2)c1 (centres unmarked) [Compound 1.061, N-(1-(3-(aminomethyl)benzyl)piperidin-3-yl)-1H-indazol-5-amine] | 282
30 | OCCn1ccc2ccc(CN3CCC[C@H](Nc4ccc5[nH]ncc5c4)C3)cc21 [Compound 1.109, (S)-2-(6-((3-(1H-indazol-5-ylamino)piperidin-1-yl)methyl)-1H-indol-1-yl)ethanol] | 242
31 | OCCOc1cccc(CN2CCC(Nc3ccc4[nH]ncc4c3)C2)c1 (centres unmarked) [Compound 1.088, 2-(3-((3-(1H-indazol-5-ylamino)pyrrolidin-1-yl)methyl)phenoxy)ethanol] | 651
32 | Clc1ccc(CN2CCC[C@H](Nc3ccc4[nH]ncc4c3)C2)cc1Cl [Compound 1.080, (S)-N-(1-(3,4-dichlorobenzyl)piperidin-3-yl)-1H-indazol-5-amine] | 162
33 | Cc1ccc(CN2CC[C@H](Nc3cccc4cnccc34)C2)cc1 [Compound 2.028, (S)-N-(1-(4-methylbenzyl)pyrrolidin-3-yl)isoquinolin-5-amine] | 789
34 | CC(=O)Nc1ccc(CN2CCC(Nc3cccc4cnccc34)C2)cc1 (centres unmarked) [Compound 2.008, N-(4-((3-(isoquinolin-5-ylamino)pyrrolidin-1-yl)methyl)phenyl)acetamide] | 3650
35 | CSc1ccc(CN2CCC[C@@H](Nc3ccc4[nH]ncc4c3)C2)cc1 [Compound 1.074, (R)-N-(1-(4-(methylthio)benzyl)piperidin-3-yl)-1H-indazol-5-amine] | 71.6
36 | c1cc(NC2CCCN(Cc3ccc(C4CC4)cc3)C2)c2ccncc2c1 (centres unmarked) [Compound 2.010, N-(1-(4-cyclopropylbenzyl)piperidin-3-yl)isoquinolin-5-amine] | 1240
37 | Clc1ccc(CN2CCCC(Nc3cccc4cnccc34)C2)cc1Cl (centres unmarked) [Compound 2.014, N-(1-(3,4-dichlorobenzyl)piperidin-3-yl)isoquinolin-5-amine] | 1670
38 | OCCOc1cccc(CN2CC[C@@H](Nc3ccc4[nH]ncc4c3)C2)c1 [Compound 1.096, (R)-2-(3-((3-(1H-indazol-5-ylamino)pyrrolidin-1-yl)methyl)phenoxy)ethanol] | 1300
